The results in this text go back to US5254565A, “Quinoline derivatives, their production and use” (priority 1988, dated 1993).

In this assay the target is T1, Acyl-CoA : cholesterol acyltransferase (ACAT) (Rattus norvegicus, UniProt Q7TQM4).
T1 construct: from the mucosal microsome fraction of the small intestine of male, 6-week old Sprague-Dawley rats; from tissue; host or cells: mucosal microsome fraction of the small intestine of male 6-week old Sprague-Dawley rats, fasted for 20 hours
T1 sequence (Q7TQM4 1-524): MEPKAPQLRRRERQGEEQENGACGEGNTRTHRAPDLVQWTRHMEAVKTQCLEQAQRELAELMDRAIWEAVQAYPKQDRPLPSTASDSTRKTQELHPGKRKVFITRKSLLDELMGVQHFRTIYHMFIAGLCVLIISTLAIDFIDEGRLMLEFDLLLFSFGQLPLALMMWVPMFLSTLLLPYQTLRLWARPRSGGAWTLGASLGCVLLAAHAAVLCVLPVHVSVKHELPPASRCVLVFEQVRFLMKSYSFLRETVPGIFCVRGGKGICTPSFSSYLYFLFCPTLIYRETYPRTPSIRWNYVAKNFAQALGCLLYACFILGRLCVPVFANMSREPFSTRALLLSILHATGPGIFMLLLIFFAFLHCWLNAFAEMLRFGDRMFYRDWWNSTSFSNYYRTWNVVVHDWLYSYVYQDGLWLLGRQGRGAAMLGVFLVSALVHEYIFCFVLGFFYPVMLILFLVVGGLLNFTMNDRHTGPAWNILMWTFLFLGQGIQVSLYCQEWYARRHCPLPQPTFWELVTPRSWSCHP
Put plainly: Acyl-CoA : cholesterol acyltransferase (ACAT) inhibitory activity: production of labeled cholesterol ester from [1-^14 C] oleoyl-CoA and endogenous cholesterol. The conditions noted are these: for inhibition at 1 µM: 10^-6 M test compound. It counts as biochemical. The method, then:
1. Acyl-CoA : cholesterol acyltransferase (ACAT) inhibitory activity.
The enzyme ACAT was prepared by the method of Heider et al. described in Journal of Lipid Research, Vol. 24, page 1127 (1982), from the mucosal microsome fraction of the small intestine of male, 6-week old Sprague-Dawley rats which had been fasted for 20 hours.
ACAT activity was calculated by the method of Helgerud et al. described in Journal of Lipid Research, Vol. 22, page 271 (1981), namely, by measuring the amount of the labeled cholesterol ester produced from [1-^14 C] oleoyl-CoA and endogenous cholesterol.
Inhibition rates (%) of the production of the labeled cholesterol ester wherein 10^-6 M-10^-8 M of test compounds were added are shown as an index of ACAT inhibitory activity in Table 1.

Read-outs that look alike come from different tables or passages of the source.

As for `O=C(Nc1ccc(Cl)cc1)Nc1cnc2ccc(Cl)cc2c1-c1ccccc1` [Compound B, 6-chloro-3-[3-(4-chlorophenyl)ureido]-4-phenylquinoline, reference compound], the “ACAT inhibitory activity (in words)” value is listed as “excellent ACAT inhibitory activities”. Besides, the inhibition at 1 µM (read-out: ACAT Inhibition Rate) was 54.5%. Where the note is “listed as compound B”, the “ACAT inhibitory activity (in words)” value was “strong ACAT inhibitory activity”. Consider `O=C(Nc1ccc(F)cc1F)Nc1cnc2ccc(Cl)cc2c1-c1ccccc1` [Example 1, 6-chloro-3-[3-(2,4-difluorophenyl)ureido]-4-phenylquinoline], for which, where the note is “read-out: ACAT Inhibition Rate”, the inhibition at 1 µM stood at 88.3%. Turning to `O=C(Nc1ccccc1F)Nc1cnc2ccc(Cl)cc2c1-c1ccccc1` [Example 4, 6-Chloro-3-[3-(2-fluorophenyl)ureido]-4-phenylquinoline], under “read-out: ACAT Inhibition Rate”, the inhibition at 1 µM was 75%.

Turning to `O=C(Nc1ccc(F)cc1F)Nc1cnc2ccc(Br)cc2c1-c1ccccc1` [Example 11, 6-Bromo-3-[3-(2,4-difluorophenyl)ureido]-4-phenylquinoline], for the setting “read-out: ACAT Inhibition Rate”, the inhibition at 1 µM was determined as 85.5%. Take `Cc1ccc2ncc(NC(=O)Nc3ccc(F)cc3F)c(-c3ccccc3)c2c1` [Example 13, 3-[3-(2,4-Difluorophenyl)ureido]-6-methyl-4-phenylquinoline]: the inhibition at 1 µM (read-out: ACAT Inhibition Rate) turned out to be 84.5%. Turning to `CCc1ccc2ncc(NC(=O)Nc3ccc(F)cc3F)c(-c3ccccc3)c2c1` [Example 14, 3-[3-(2,4-Difluorophenyl)ureido]-6-ethyl-4-phenylquinoline], the inhibition at 1 µM (read-out: ACAT Inhibition Rate) is 90.1%. Consider `CC(C)c1ccc2ncc(NC(=O)Nc3ccc(F)cc3F)c(-c3ccccc3)c2c1` [Example 15, 3-[3-(2,4-Difluorophenyl)ureido]-6-isopropyl-4-phenylquinoline], for which the inhibition at 1 µM (read-out: ACAT Inhibition Rate) amounted to 91.6%.

Turning to `O=C(Nc1ccc(F)cc1F)Nc1cnc2ccc(C(F)(F)F)cc2c1-c1ccccc1` [Example 17, 3-[3-(2,4-Difluorophenyl)ureido]-4-phenyl-6-trifluoromethylquinoline], the inhibition at 1 µM (read-out: ACAT Inhibition Rate) is 90.1%. Still for that read-out and setting: the value for `COc1ccc2ncc(NC(=O)Nc3ccc(F)cc3F)c(-c3ccccc3)c2c1` [Example 18, 3-[3-(2,4-Difluorophenyl)ureido]-6-methoxy-4-phenylquinoline] was 85.9%; that for `O=C(Nc1ccc(F)cc1F)Nc1cnc2ccccc2c1-c1ccccc1Cl` [Example 21, 4-(2-Chlorophenyl)-3-[3-(2,4-difluorophenyl)ureido]quinoline] was 91.8%. For the compound `O=C(Nc1ccc(F)cc1F)Nc1cnc2ccc(Cl)cc2c1-c1ccccc1F` [Example 22, 6-Chloro-3-[3-(2,4-difluorophenyl)ureido]-4-(2-fluorophenyl)quinoline], the inhibition at 1 µM (read-out: ACAT Inhibition Rate) worked out at 96.8%. Still for that read-out and setting: the value for `O=C(Nc1ccc(F)cc1F)Nc1cnc2ccc(Cl)cc2c1-c1cccc(Cl)c1` [Example 24, 6-Chloro-4-(3-chlorophenyl)-3-[3-(2,4-difluorophenyl)ureido]quinoline] was 88.5%. Still for that read-out and setting: the value for `O=C(Nc1ccc(F)cc1F)Nc1cnc2ccc(Cl)cc2c1-c1ccc(Cl)cc1` [Example 25, 6-Chloro-4-(4-chlorophenyl)-3-[3-(2,4-difluorophenyl)ureido]quinoline] was 77%; that for `Cc1ccc(-c2c(NC(=O)Nc3ccc(F)cc3F)cnc3ccc(Cl)cc23)cc1` [Example 26, 6-Chloro-3-[3-(2,4-difluorophenyl)ureido]-4-(4-methylpheynyl)quinoline] was 87.4%; that for `Cc1ccccc1-c1c(NC(=O)Nc2ccc(F)cc2F)cnc2ccc(Cl)cc12` [Example 27, 6-Chloro-3-[3-(2,4-difluorophenyl)ureido]-4-(2-methylphenyl)quinoline] was 97.2%. Still for that read-out and setting: the value for `COc1ccc(-c2c(NC(=O)Nc3ccc(F)cc3F)cnc3ccc(Cl)cc23)cc1` [Example 28, 6-Chloro-3-[3-(2,4-difluorophenyl)ureido]-4-(4-methoxyphenyl)quinoline] was 92.7%; that for `COc1ccccc1-c1c(NC(=O)Nc2ccc(F)cc2F)cnc2ccc(Cl)cc12` [Example 29] was 98.2%. For the compound `Cc1ccc2ncc(NC(=O)Nc3ccc(F)cc3F)c(-c3ccccc3C)c2c1` [Example 31, 3-[3-(2,4-Difluorophenyl)ureido]-6-methyl-4-(2-methylphenyl)quinoline], under “read-out: ACAT Inhibition Rate”, the inhibition at 1 µM is 96.9%. The same measure, in the same setting: the value for `CCc1ccc2ncc(NC(=O)Nc3ccc(F)cc3F)c(-c3ccccc3Cl)c2c1` [Example 33, 4-(2-Chlorophenyl)-3-[3-(2,4-difluorophenyl)ureido]-6-ethylquinoline] was 99.2%. Same read-out and setting: the value for `CC(C)c1ccc2ncc(NC(=O)Nc3ccc(F)cc3F)c(-c3ccccc3Cl)c2c1` [Example 34, 4-(2-Chlorophenyl)-3-[3-(2,4-difluorophenyl)ureido]-6-isopropylquinoline] was 99.3%. On the same count and under the same terms, the value for `CCCCc1ccc2ncc(NC(=O)Nc3ccc(F)cc3F)c(-c3ccccc3Cl)c2c1` [Example 35, 6-Butyl-4-(2-chlorophenyl)-3-[3-(2,4-difluorophenyl)ureido]quinoline] was 97%; that for `O=C(Nc1ccc(F)cc1F)Nc1cnc2ccc(F)cc2c1-c1ccccc1Cl` [Example 36, 4-(2-Chlorophenyl)-3-[3-(2,4-difluorophenyl)ureido]-6-fluoroquinoline] was 95.6%; that for `CSc1ccc2ncc(NC(=O)Nc3ccc(F)cc3F)c(-c3ccccc3)c2c1` [Example 37, 3-[3-(2,4-Difluorophenyl)ureido]-6-methylthio-4-phenylquinoline] was 87.8%. Take `Cc1cc(Cl)cc2c(-c3ccccc3Cl)c(NC(=O)Nc3ccc(F)cc3F)cnc12` [Example 38, 6-Chloro-4-(2-chlorophenyl)-3-[3-(2,4-difluorophenyl)ureido]-8-methylquinoline]: the inhibition at 1 µM (read-out: ACAT Inhibition Rate) is 98.3%. In the case of `Cc1cc(C)c2ncc(NC(=O)Nc3ccc(F)cc3F)c(-c3ccccc3C)c2c1` [Example 39, 3-[3-(2,4-Difluorophenyl)ureido]-6,8-dimethyl-4-(2-methylphenyl)quinoline], for the setting “read-out: ACAT Inhibition Rate”, the inhibition at 1 µM is 98.5%. The inhibition at 0.01 µM (10^-8 M test compound, read-out: ACAT Inhibition Rate) was determined as 43.3%. As to `O=C(Nc1cnc2ccc(Cl)cc2c1-c1ccccc1)Nc1c(F)cccc1F` [Example 46, 6-chloro-3-[3-(2,6-difluorophenyl)ureido]-4-phenylquinoline], for the setting “read-out: ACAT Inhibition Rate”, the inhibition at 1 µM worked out at 75.7%. Still for that read-out and setting: the value for `O=C(Nc1ccc(Cl)cc1)Nc1cnc2ccc(Cl)cc2c1-c1ccccc1Cl` [Example 50, 6-Chloro-4-(2-Chlorophenyl)-3-[3-(4-chlorophenyl)ureido]quinoline] was 96.8%. Regarding `Cc1cc(C)c2ncc(NC(=O)Nc3ccc(Cl)cc3)c(-c3ccccc3Cl)c2c1` [Example 51, 4-(2-Chlorophenyl)-3-[3-(4-chlorophenyl)ureido]-6,8-dimethylquinoline], for the setting “read-out: ACAT Inhibition Rate”, the inhibition at 1 µM stood at 97.2%.

Turning to `CSc1ccccc1-c1c(NC(=O)Nc2ccc(F)cc2F)cnc2ccc(Cl)cc12` [Example 52, 6-Chloro-3-[3-(2,4-difluorophenyl)ureido]-4-(2-methylthiophenyl)quinoline], where the note is “read-out: ACAT Inhibition Rate”, the inhibition at 1 µM came to 97.9%. Same read-out and setting: the value for `O=C(Nc1ccc(F)cc1F)Nc1cnc2ccc(SC(F)F)cc2c1-c1ccccc1` [Example 53, 6-Difluoromethylthio-3-[3-(2,4-difluorophenyl)ureido]-4-phenylquinoline] was 85.7%; that for `O=C(Nc1ccc(F)cc1F)Nc1cnc2ccc(OC(F)F)cc2c1-c1ccccc1` [Example 54, 6-Difluoromethoxy-3-[3-(2,4-difluorophenyl)ureido]-4 4-phenylquinoline] was 80.7%; that for `Cc1cc(Cl)c2ncc(NC(=O)Nc3ccc(F)cc3F)c(-c3ccccc3Cl)c2c1` [Example 55, 8-Chloro-4-(2-chlorophenyl)-3-[3-(2,4-difluorophenyl)ureido]-6-methylquinoline] was 97.6%.

With `Cc1ccccc1-c1c(NC(=O)Nc2ccc(F)c([N+](=O)[O-])c2)cnc2ccc(Cl)cc12` [Example 58, 6-Chloro-3-[3-(4-fluoro-3-nitrophenyl)ureido]-4-(2-methylphenyl)quinoline], the inhibition at 1 µM (read-out: ACAT Inhibition Rate) is 88.5%. With `CSc1ccccc1-c1c(NC(=O)Nc2ccc(F)cc2F)cnc2ccc(C)cc12` [Example 59, 3-[3-(2,4-Difluorophenyl)ureido]-6-mehtyl-4-(2-mehtylthiophenyl)quinoline], the inhibition at 1 µM (read-out: ACAT Inhibition Rate) turned out to be 97.5%. Take `COc1ccc(-c2c(NC(=O)Nc3ccc(F)cc3F)cnc3ccc(Cl)cc23)cc1OC` [Example 60, 6-Chloro-3-[3-(2,4-difluorophenyl)ureido]-4-(3,4-dimethoxyphenyl)quinoline]: the inhibition at 1 µM (read-out: ACAT Inhibition Rate) was 95.1%.
